{"source": "patent US6358700B2", "about": "“Method for detecting microorganisms by fluorescent staining using hydrostatic pressure” (Japan Marine Science and Technology Center, priority 1998, dated 2002)", "key": {"IFO2347 strain [1]": {"tested_on": "IFO2347 strain", "assay": "Accumulation of CF and CDCF under elevated hydrostatic pressure (CytoFluor 2350)", "type": "cell-based, Saccharomyces cerevisiae", "conditions": "10 μM CFDA or CDCFDA, one hour, FIG. 1A", "experimental": "(§1) Cells of Saccharomyces cerevisiae were grown in YPD (1% yeast extract, 2% bactopeptone, 2% D-glucose) broth at 24° C. Cells from a log-phase culture (2×10^7 to 4×10^7 cells/ml) were collected by centiifugation and re-suspended in fresh YPD containing 50 mM citric acid (pH 3.0 or pH 5.0), then placed in plastic tubes (Cryotubes, available from Nunc) at 2×10^7 to 3×10^7 cells/ml. After sealing with Parafilm, the tubes were put into titanium pressure vessels, followed by application of a desired hydrostatic pressure. The each required hydrostatic pressure was established within 2 min using a hand pump (available from Rigo-sha, Japan). To remove samples, the pressure was released in approximately 15 sec.\n(§2) Cells originated fiom a log-phase culture (2×10^7 to 4×10^7 cells/ml) were incubated with 10 μM CFDA (Sigma, Cat. No. C-5041) in YPD containing 50 mM citric acid (pH 3.0), or 10 μM CDCFDA Molecular Probe, Cat. No. C-369) in YPD containing 50 mM citric acid (pH 5.0), respectively, under varying hydrostatic pressures ranging from ordinary pressure to 60 MPa. To analyze the dependence, on glucose, of pressure-induced dye-accumulation, vegetative cells were collected, washed twice in distilled water and starved for 30 min on ice. Then cells were suspended in MBA buffer (100 mM MES-Bis-Tris, 100 mM ammonium sulfate, pH 5.0), followed by addition of CDCFDA and application of a desired hydrostatic pressure of up to 6OMPa for one hour in the presence of D-glucose in various concentrations.\n(§3) To analyze the effect of 2-deoxyglucose, cells were incubated with CDCFDA in MBA buffer containing 100 mM D-glucose. Unless otherwise specified, the final concentration of the fluorescent dye was 10 μM. After applying a desired hydrostatic pressure for one hour, the cells were washed twice with 10 mM MES-Bis-Tris (pH 5.0) and suspended in MB buffer. Fluorescence of the labeled cells emitted at 535 nm with excitation at 485 nm was detected using CytoFluor 2350 Plate Reader (available from Mlipore), or an RF5300PC spectrofluorometer (available from Shimazu, Japan). Fluorescence intensity (a. u.; arbitrary units) was recorded as the fluorescence of labeled cells minus the fluorescence of non-labeled cells for 10^7 cells.\n(§4) Cells of the IFO2347 strain were incubated with 10 μM of CFDA or CDCFDA and cultured for one hour under each hydrostatic pressure condition. The stained cells were analyzed using Cytofluor 2350. The results thus obtained are plotted on FIG. 1A Similarly, cells of IFO10159 strain were inoculated with 10 μM of CFDA or CDCFDA and cultured for one hour under each hydrostatic pressure condition. The stained cells were analyzed using Cytofluor 2350. The results thus obtained are plotted on FIG. 1B. In FIGS. 1A and 1B, ◯ and ● represent cells stained with CF and those stained with CDCF, respectively."}, "IFO10159 strain": {"tested_on": "IFO10159 strain", "assay": "Accumulation of CF and CDCF under elevated hydrostatic pressure (CytoFluor 2350)", "type": "cell-based, Saccharomyces cerevisiae", "conditions": "ordinary pressure; for total fluorescence intensity of labeled cells: 10 μM dye, one hour", "experimental": "as §1, §2, §3, §4"}, "IFO2347 strain [2]": {"tested_on": "IFO2347 strain", "assay": "Flow cytometry of CDCFDA-labeled cells", "type": "cell-based, Saccharomyces cerevisiae", "conditions": "for mean fluorescence of labeled cells / peak fluorescence of labeled cells: 10 μM CDCFDA, 24° C., one hour", "experimental": "Cells were incubated with 10 μM CFDA or 10 μM CDCFDA and cultivated under several hydrostatic pressures for one hour. After decompression, the labeled (or stained) cells were washed twice with distilled water and re-suspended in MB buffer. The cells were analyzed using the Bryte-HS Flow Cytometry System (available from Bio-Rad) under ordinary pressure.\nThe IFO2347 strain was cultured at 24° C. for one hour in the presence of 10 μM CDCFDA, under a hydrostatic pressure of 0.1, 30 or 60 MPa. The CDCFDA-labeled cells (about 100,000) were analyzed using the Bryte-HS Flow Cytometry System. FIG.2A depicts the histograms showing the intensity distribution of populations of IFO2347 cells labeled with CDCFDA observed after the cultivation."}, "IFO2347 strain [3]": {"tested_on": "IFO2347 strain", "assay": "Dependency on glucose metabolism of pressure-induced CDCF accumulation", "type": "cell-based", "conditions": "Saccharomyces cerevisiae, MBA buffer with 100 mM D-glucose, 10 μM CDCFDA, FIG. 4B, read-out: concentration at which half-maximal inhibition of pressure-induced CDCF accumulation occurred", "experimental": "as §2, with “Then cells were suspended in MBA buffer (100 mM MES-Bis-Tris, 100 mM ammonium sulfate, pH 5.0), followed by addition of CDCFDA and application of a desired hydrostatic pressure of up to 6OMPa for one hour in the presence of D-glucose in various concentrations.” left out\nas §3, with “Unless otherwise specified, the final concentration of the fluorescent dye was 10 μM. After applying a desired hydrostatic pressure for one hour, the cells were washed twice with 10 mM MES-Bis-Tris (pH 5.0) and suspended in MB buffer.” left out\nThe cells of the strain were cultured at 24° C. for one hour in MBA buffer containing a desired amount of D-glucose at a predetermined hydrostatic pressure (0.1 MPa (◯), 30 MPa (●)) in the presence of 10 μM CDCFDA. The labeled cells were analyzed using CytoFluor 2350. […]"}, "IFO2347 strain [4]": {"tested_on": "IFO2347 strain", "assay": "Effects of hydrostatic pressure on hydrolysis of CDCFDA", "type": "cell-based, Saccharomyces cerevisiae", "conditions": "for fluorescence intensity reached (hydrolysis under pressure): 50 μM CDCFDA, FIG. 3A", "text": "Fluorescence emission was examined under several hydrostatic pressures in a hydrostatic chamber provided with transparent windows which were made by sapphire (size: 10×8 mm). Each sample in a transparent cuvette was placed in the chamber which was set up in an RF5300PC spectrofluorometer. Fluorescence was emitted at 535 nm with excitation at 485 nm. The fluorescence intensity of the labeled cells was strong enough to be detected through the sapphire windows, even though the emission was reduced compared to the analysis without such a hydrostatic chamber equipped with a sapphire window. Each hydrostatic pressure was applied using a hand pump (available from Teramecs, Co. Ltd., Japan).\nA cuvette containing the IFO2347 strain was fitted to a container, followed by addition of 50 μM CDCFDA, application of a hydrostatic pressure at a point P (see FIG. 3A), and examination of the fluorescence intensity change with time in a hydrostatic chamber equipped with RF5300 Fluorescent Spectrometer. The results obtained are plotted on FIG. 3A The fluorescence intensity increased to 300 a.u. and 130 a.u. when hydrostatic pressures of 0.1 MPa (ordinary pressure) and 60 MPa were applied, respectively (FIG. 3A). On the other hand, the fluorescence intensity increased to 770 a.u. when a pressure of 30 MPa was applied.\nCells of the IFD2347 strain were pre-incubated at several hydrostatic pressures for one hour in YPD culture medium (pH 5.0), and subsequently the pre-incubated cells were placed into a cuvette, followed by addition of 50 μM of CDCFDA to the pressure-adapted cells at ordinary pressure and examination of any change in the fluorescence intensity (the hydrolysis activity) by the same method as used above. The results thus obtained are plotted on FIG. 3B. […] Almost identical results were obtained when using CFDA (data not shown)."}}}
{"compound": "Carboxydichlorofluorescein [CDCF]", "values": [{"measurement": "hydrostatic pressure at which accumulation peaks", "setting": "IFO2347 strain [1]", "result": 30, "unit": "MPa"}, {"measurement": "fluorescence intensity relative to non-labeled cells", "setting": "IFO10159 strain", "result": "about 2.5 fold"}, {"measurement": "total fluorescence intensity of labeled cells", "setting": "IFO10159 strain", "result": 24.8, "unit": "a. u. per 10^7 cells"}, {"measurement": "mean fluorescence of labeled cells", "setting": "IFO2347 strain [2]; 0.1 MPa (ordinary pressure)", "result": 26, "unit": "a.u."}, {"measurement": "peak fluorescence of labeled cells", "setting": "IFO2347 strain [2]; 0.1 MPa (ordinary pressure)", "result": 23, "unit": "a.u."}, {"measurement": "increase of accumulation of CDCF", "setting": "IFO2347 strain [2]; 30 MPa for one hour versus ordinary pressure", "result": "four to six folds"}, {"measurement": "mean fluorescence of labeled cells", "setting": "IFO2347 strain [2]; 30 MPa", "result": 162, "unit": "a.u."}, {"measurement": "peak fluorescence of labeled cells", "setting": "IFO2347 strain [2]; 30 MPa", "result": 92, "unit": "a.u."}, {"measurement": "enhancement of staining", "setting": "IFO2347 strain [2]; 60 MPa", "result": "not enhanced"}]}
{"compound": "O=CC[C@@H](O)[C@H](O)[C@H](O)CO", "note": "[2-deoxyglucose]", "values": [{"measurement": "IC50", "setting": "IFO2347 strain [3]", "result": "~12", "unit": "mM"}]}
{"compound": "Carboxydichlorofluorescein diacetate [CDCFDA]", "values": [{"measurement": "fluorescence intensity reached (hydrolysis under pressure)", "setting": "IFO2347 strain [4]; 0.1 MPa (ordinary pressure)", "result": 300, "unit": "a.u."}, {"measurement": "fluorescence intensity reached (hydrolysis under pressure)", "setting": "IFO2347 strain [4]; 30 MPa", "result": 770, "unit": "a.u."}, {"measurement": "fluorescence intensity reached (hydrolysis under pressure)", "setting": "IFO2347 strain [4]; 60 MPa", "result": 130, "unit": "a.u."}, {"measurement": "rate of hydrolysis by cells adapted to 30 MPa relative to cells adapted to 0.1 MPa or 60 MPa", "setting": "IFO2347 strain [4]; pre-incubation one hour, 50 μM CDCFDA added at ordinary pressure, FIG. 3B", "result": "approximately three times greater"}]}
{"compound": "Carboxyfluorescein [CF]", "values": [{"measurement": "hydrostatic pressure at which accumulation peaks", "setting": "IFO2347 strain [1]", "result": 40, "unit": "MPa"}, {"measurement": "fluorescence intensity relative to non-labeled cells", "setting": "IFO10159 strain", "result": 1.6, "unit": "fold"}, {"measurement": "total fluorescence intensity of labeled cells", "setting": "IFO10159 strain", "result": 15.5, "unit": "a. u. per 10^7 cells"}]}
